Source: article PMC4425367 (Journal of medicinal chemistry, 2015)
“Also recorded” adds a separate entry of the source.

Experiments:
rCB1 receptor = rCB1 receptor (Rattus norvegicus, UniProt P20272); assay: cAMP assay, forskolin-stimulated cAMP in HEK293 cells expressing rCB1; type: cell-based; conditions: cAMP functional test
hCB2 receptor = hCB2 receptor (Homo sapiens, UniProt P34972); assay: cAMP assay, forskolin-stimulated cAMP in HEK293 cells expressing hCB2; type: cell-based; conditions: for classification hCB2: cAMP functional test
hCB2 receptor, sequence (P34972 whole entry): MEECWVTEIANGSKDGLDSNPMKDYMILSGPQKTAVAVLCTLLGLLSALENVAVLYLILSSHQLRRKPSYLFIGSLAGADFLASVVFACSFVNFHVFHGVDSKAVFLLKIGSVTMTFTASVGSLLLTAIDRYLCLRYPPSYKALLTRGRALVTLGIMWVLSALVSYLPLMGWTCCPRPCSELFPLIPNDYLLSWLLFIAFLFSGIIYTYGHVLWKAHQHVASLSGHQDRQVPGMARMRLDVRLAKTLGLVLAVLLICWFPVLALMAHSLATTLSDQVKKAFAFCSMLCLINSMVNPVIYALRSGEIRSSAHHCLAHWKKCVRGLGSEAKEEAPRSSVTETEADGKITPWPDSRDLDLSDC

CB1 receptor = CB1 receptor (Rattus norvegicus, UniProt P20272); type: binding; conditions: 10Ki concentration, incubation extended to 60 min, compared with 30 min
CB1 receptor, sequence (P20272 whole entry): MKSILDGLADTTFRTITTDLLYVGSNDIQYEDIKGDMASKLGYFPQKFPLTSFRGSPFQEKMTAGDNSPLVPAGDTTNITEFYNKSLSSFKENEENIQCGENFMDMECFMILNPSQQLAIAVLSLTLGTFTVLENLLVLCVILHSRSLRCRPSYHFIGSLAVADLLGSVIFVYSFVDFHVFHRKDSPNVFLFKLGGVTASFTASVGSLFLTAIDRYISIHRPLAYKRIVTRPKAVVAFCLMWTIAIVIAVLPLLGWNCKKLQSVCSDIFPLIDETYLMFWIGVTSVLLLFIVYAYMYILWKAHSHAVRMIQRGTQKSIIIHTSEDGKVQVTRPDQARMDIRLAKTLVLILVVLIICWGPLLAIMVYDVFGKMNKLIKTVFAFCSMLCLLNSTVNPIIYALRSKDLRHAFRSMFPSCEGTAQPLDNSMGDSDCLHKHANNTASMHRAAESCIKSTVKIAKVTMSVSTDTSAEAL

rCB1 receptor, sequence (P20272 whole entry): as above

| Structure (SMILES) | classification rCB1 (rCB1 receptor) | classification hCB2 (hCB2 receptor) | response of forskolin-stimulated cAMP accumulation, hCB2 (hCB2 receptor; HEK293 cells expressing hCB2, up to a 3 μM concentration) | CB1 covalent binding, 60 min incubation (CB1 receptor) |
| --- | --- | --- | --- | --- |
| CC1(C)Oc2cc([C@]34CC5CC(C[C@@](N=[N+]=[N-])(C5)C3)C4)cc(O)c2[C@@H]2C[C@H](O)CC[C@H]21 [Compound 20, (6aR,9R,10aR)-3-[(1r,3R)-3-Azidoadamantan-1-yl]-6,6-di-methyl-6a,7,8,9,10,10a-hexahydro-6H-benzo[c]chromene-1,9-diol] | potent agonists; also recorded: agonist | neutral antagonists | – | – |
| CCCCCCC(C)(C)c1ccc([C@@H]2C[C@H](O)CC[C@H]2CCCO)c(O)c1 [CP-55,940, reference compound] | – | full agonist; also recorded: potent agonist | – | – |
| CC1(C)Oc2cc([C@]34CC5CC(C[C@@](C#N)(C5)C3)C4)cc(O)c2[C@@H]2C[C@H](O)CC[C@H]21 [Compound 25, (1R,3r)-3-[(6aR,9R,10aR)-1,9-Dihydroxy-6,6-dimethyl-6a,7,8,9,10,10a-hexahydro-6H-benzo[c]chromen-3-yl]-adamantane-1-carbonitrile] | agonist | inverse agonist | – | – |
| COC(=O)N[C@]12CC3CC(C1)C[C@](c1cc(O)c4c(c1)OC(C)(C)[C@@H]1CC[C@@H](O)C[C@@H]41)(C3)C2 [Compound 26, Methyl {(1R,3r)-3-[(6aR,9R,10aR)-1,9-Dihydroxy-6,6-dimethyl-6a,7,8,9,10,10a-hexahydro-6H-benzo[c]chromen-3-yl]-adamantan-1-yl}carbamate] | agonist | inverse agonist | – | – |
| CC1(C)Oc2cc([C@]34CC5CC(C[C@@](CC#N)(C5)C3)C4)cc(O)c2[C@@H]2C[C@H](O)CC[C@H]21 [Compound 23, 2-{(1R,3r)-3-[(6aR,9R,10aR)-1,9-Dihydroxy-6,6-dimethyl-6a,7,8,9,10,10a-hexahydro-6H-benzo[c]chromen-3-yl]-adamantan-1-yl}acetonitrile] | potent agonists; also recorded: agonist | inverse agonist | – | – |
| CC1(C)Oc2cc([C@]34CC5CC(C[C@@](CN=C=S)(C5)C3)C4)cc(O)c2[C@@H]2C[C@H](O)CC[C@H]21 [Compound 16, (6aR,9R,10aR)-3-[(1r,3R)-3-(Isothiocyanatomethyl)-adamantan-1-yl]-6,6-dimethyl-6a,7,8,9,10,10a-hexahydro-6H-benzo[c]chromene-1,9-diol] | potent agonists; also recorded: agonist | inverse agonist | – | – |
| CC1(C)Oc2cc([C@]34CC5CC(C[C@@](CN=[N+]=[N-])(C5)C3)C4)cc(O)c2[C@@H]2C[C@H](O)CC[C@H]21 [Compound 17, (6aR,9R,10aR)-3-[(1r,3R)-3-(Azidomethyl)adamantan-1-yl]-6,6-dimethyl-6a,7,8,9,10,10a-hexahydro-6H-benzo[c]-chromene-1,9-diol] | agonist | neutral antagonists | no response | – |
| CC1(C)Oc2cc(C34CC5CC(CC(C5)C3)C4)cc(O)c2[C@@H]2C[C@H](O)CC[C@H]21 [Compound 27, reference compound] | agonist | – | – | – |
| CC1(C)Oc2cc([C@]34CC5CC(C[C@@](N=C=S)(C5)C3)C4)cc(O)c2[C@@H]2C[C@H](O)CC[C@H]21 [Compound 19, (6aR,9R,10aR)-3-[(1r,3R)-3-Isothiocyanatoadamantan-1-yl]-6,6-dimethyl-6a,7,8,9,10,10a-hexahydro-6H-benzo[c]-chromene-1,9-diol] | potent agonists; also recorded: agonist | neutral antagonists | – | no further increase |
